TGI data for 13 molecules are collected here from PubChem BioAssay (NCI).

The structures appear in SMILES notation.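 Exposure lasted 48 hours, with cells grown in 96-well plates and compounds tested at five concentrations. Definition used: TGI = concentration required for complete inhibition of growth.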

Some test systems named below: OVCAR-5 ovarian; HOP-92 NSCLC; LOX IMVI melanoma; TK-10 renal; SW-620 colon; HOP-62 NSCLC; SN12C renal; OVCAR-4 ovarian; EKVX NSCLC; OVCAR-3 ovarian.
Assay in all cases: NCI-60 cell line screen, 48 h

In the case of `CC(=O)NC1C(OCc2ccccc2)OC(CO)C(O)C1OCC(=O)N[C@@H](C)C(=O)N[C@H](CCC(=O)NCCCNc1ccc([N+](=O)[O-])c2[nH]c3ccccc3c(=O)c12)C(N)=O` (stereo partly drawn), the TGI in the test on OVCAR-5 ovarian, in the test with HOP-92 NSCLC, with LOX IMVI melanoma, with TK-10 renal, in the test on SW-620 colon and in the test with HOP-62 NSCLC was more than 100 µM throughout. Also, the TGI with SN12C renal was more than 100 µM; in the test on OVCAR-4 ovarian, 94.8 µM; in the test on EKVX NSCLC, more than 100 µM; with OVCAR-3 ovarian, more than 100 µM.

For `COc1ccc2c(c1)CCC/C2=N\NS(=O)(=O)c1c(C)cc(C)cc1C`, the TGI was more than 100 µM with OVCAR-5 ovarian; 54.7 µM in the test with HOP-92 NSCLC; 43 µM with LOX IMVI melanoma; more than 100 µM with TK-10 renal; 90.8 µM with SW-620 colon; more than 100 µM in the test on HOP-62 NSCLC. Also, the TGI was 45.5 µM in the test on SN12C renal, 92.7 µM in the test with OVCAR-4 ovarian, 98.5 µM in the test with EKVX NSCLC and more than 100 µM in the test with OVCAR-3 ovarian.

For `COc1ccccc1NC(=S)N/N=C/c1cccc(C)n1`, the TGI with OVCAR-5 ovarian is more than 100 µM; in the test on HOP-92 NSCLC, more than 92.8 µM; in the test with LOX IMVI melanoma, more than 100 µM; in the test on TK-10 renal, more than 100 µM; with SW-620 colon, more than 100 µM; in the test with HOP-62 NSCLC, more than 62.9 µM. Moreover, the TGI in the test with SN12C renal is more than 93.8 µM; in the test with OVCAR-4 ovarian, more than 100 µM; in the test on EKVX NSCLC, more than 100 µM; in the test with OVCAR-3 ovarian, more than 100 µM.

With `CC(C)(C)C1=C(Br)C(OC(=O)C(F)(F)F)(C(C)(C)C)OP1(=O)c1ccccc1` (stereo not drawn), the TGI was more than 100 µM with OVCAR-5 ovarian; 92.5 µM in the test on HOP-92 NSCLC; more than 100 µM in the test with LOX IMVI melanoma; more than 100 µM in the test on TK-10 renal; 76.8 µM with HOP-62 NSCLC; more than 100 µM in the test with SN12C renal. Besides, the results for the TGI with OVCAR-4 ovarian, with EKVX NSCLC and in the test with OVCAR-3 ovarian were more than 100 µM, 69 µM and more than 100 µM, respectively.

For the molecule `CC(=O)c1sc2[n+](c1C)C(=O)/C(=C\c1ccccc1Cl)S2`, the TGI was 50.1 µM with OVCAR-5 ovarian; more than 100 µM in the test with HOP-92 NSCLC; 35.8 µM with LOX IMVI melanoma; 57.3 µM in the test on TK-10 renal; 31.1 µM in the test with SW-620 colon; 47.7 µM in the test with HOP-62 NSCLC. Also, the TGI in the test on SN12C renal was 78.8 µM; in the test on OVCAR-4 ovarian, more than 100 µM; in the test on EKVX NSCLC, 80.7 µM; with OVCAR-3 ovarian, 35.8 µM.

In the case of `O=C(Nc1ccc2ccccc2c1)c1cc2cc(CCl)ccc2oc1=O`, the TGI in the test with OVCAR-5 ovarian, with HOP-92 NSCLC, in the test on LOX IMVI melanoma, in the test with TK-10 renal, in the test on SW-620 colon and in the test with HOP-62 NSCLC was more than 100 µM in each case. Further, the TGI in the test on SN12C renal, with OVCAR-4 ovarian, with EKVX NSCLC and in the test on OVCAR-3 ovarian was more than 100 µM in each case.

Take `c1cc2c(cc1C1=NCCN1)c1cc(C3=NCCN3)ccc1n2CC1CCCCC1`: the TGI with OVCAR-5 ovarian is 95.6 µM; with HOP-92 NSCLC, 47.9 µM; in the test on LOX IMVI melanoma, 39.7 µM; in the test with TK-10 renal it was more than 100 µM; with SW-620 colon it was more than 100 µM; in the test on HOP-62 NSCLC, 94.8 µM. Besides, the TGI is 80.1 µM with SN12C renal, more than 100 µM in the test with OVCAR-4 ovarian, 69.2 µM in the test with EKVX NSCLC and more than 100 µM in the test with OVCAR-3 ovarian.

For `CCOC(=O)C(C/C=C/CO)N(C)C(=O)OC(C)(C)C` (stereo not drawn), the TGI in the test with OVCAR-5 ovarian, in the test on HOP-92 NSCLC, in the test on LOX IMVI melanoma, with TK-10 renal, in the test on SW-620 colon and in the test on HOP-62 NSCLC was more than 100 µM in each case. Besides, the TGI in the test with SN12C renal, in the test on OVCAR-4 ovarian, in the test on EKVX NSCLC and in the test with OVCAR-3 ovarian was more than 100 µM each time.

For the molecule `CSCCCNC(=O)[C@H](CSC)NC(=O)c1csc(CCNC(=O)[C@@H](NSc2ccccc2[N+](=O)[O-])C(C)O)n1` (stereo partly drawn), the TGI in the test with OVCAR-5 ovarian, in the test on HOP-92 NSCLC, in the test with LOX IMVI melanoma, in the test with TK-10 renal, in the test on SW-620 colon and with HOP-62 NSCLC was more than 100 µM in each case. Moreover, the TGI in the test with SN12C renal, with OVCAR-4 ovarian, in the test on EKVX NSCLC and in the test with OVCAR-3 ovarian was more than 100 µM throughout.

Turning to `Cc1ccc2c(c1C)C(=O)/C(=C/c1cccc(C)c1C(=O)O)C2`, the TGI with OVCAR-5 ovarian is more than 100 µM; with HOP-92 NSCLC, more than 91 µM; in the test on LOX IMVI melanoma it was more than 90.7 µM; in the test on TK-10 renal, more than 100 µM; in the test with SW-620 colon, more than 100 µM; with HOP-62 NSCLC it was more than 100 µM. Moreover, the TGI in the test with SN12C renal, with OVCAR-4 ovarian, in the test with EKVX NSCLC and in the test with OVCAR-3 ovarian was more than 100 µM throughout.

For `CN(C)CCNC(=O)c1c(O)ccc2c1c1c(n2CCc2ccccc2)C(=O)c2ccccc2C1=O`, the TGI in the test on OVCAR-5 ovarian came to 29.5 µM; in the test on HOP-92 NSCLC, 22.7 µM; in the test with LOX IMVI melanoma, 6.93 µM; in the test on TK-10 renal, 18.4 µM; with SW-620 colon it was 20.6 µM; with HOP-62 NSCLC it was 23.1 µM. The TGI in the test on SN12C renal came to 20 µM; in the test on OVCAR-4 ovarian it was 24.6 µM; with EKVX NSCLC, 28.5 µM; in the test with OVCAR-3 ovarian, 28.1 µM.

Consider `C(=C/c1nc2ccccc2o1)/c1ccc2c(c1)OCO2`, for which the TGI in the test on OVCAR-5 ovarian was more than 100 µM; with HOP-92 NSCLC, 69.7 µM; with LOX IMVI melanoma it was more than 47.8 µM; in the test with SW-620 colon it was more than 100 µM; in the test on HOP-62 NSCLC, 45.7 µM; with SN12C renal it was more than 100 µM. Moreover, the TGI is 44.6 µM in the test on OVCAR-4 ovarian, more than 100 µM with EKVX NSCLC and 29.1 µM with OVCAR-3 ovarian.

Turning to `N#Cc1nc(-c2cccc(-c3nc(C#N)c(N)o3)n2)oc1N`, the TGI with OVCAR-5 ovarian, with HOP-92 NSCLC, with LOX IMVI melanoma, in the test with TK-10 renal, in the test on SW-620 colon and with HOP-62 NSCLC was more than 100 µM each time. The TGI in the test on SN12C renal, in the test with OVCAR-4 ovarian, in the test with EKVX NSCLC and with OVCAR-3 ovarian was more than 100 µM in each case.
